{"source": "patent US20240279288A1", "about": "“APPLICATION OF PLANT JAZ PROTEINS AND DERIVED POLYPEPTIDES IN PREVENTION AND TREATMENT OF HUMAN AND ANIMAL TUMORS” (ANYANG INSTITUTE OF SINO-COTTON INDUSTRY INNOVATION, priority 2021, published 2024)", "key": {"[1]": {"tested_on": "JA content of callus of cotton \"CCRI 24\"", "assay": "JA content in cotton callus (HPLC)", "settings": "DIECA 200, 400, 800 μM or ibuprofen 20, 40, 80 μM in callus induction medium", "experimental": "(§1) Explants from “CCRI 24” were cut to consistent length and placed under the same conditions for cultivation. After one month, the growth of callus was observed and photographed with a camera and microscope. Statistics on the weights of callus and measurement of JA content were performed."}, "[2]": {"tested_on": "callus of cotton \"CCRI 24\"", "assay": "Growth of cotton callus on medium with JA synthesis inhibitor", "settings": "DIECA 200, 400, 800 μM or ibuprofen 20, 40, 80 μM in callus induction medium; hypocotyl explants", "experimental": "as §1"}, "[3]": {"tested_on": "cell cycle-related genes of callus", "assay": "Fluorescence quantitative PCR of cell cycle-related genes in cotton callus", "settings": "DIECA 200, 400, 800 μM or ibuprofen 20, 40, 80 μM in callus induction medium", "experimental": "Identification at the RNA level: RNA was extracted using RNA extraction kit (RNAprep Pure Polysaccharide Polyphenol Plant Total RNA Extraction Kit (DP441), manufacturer: TIANGEN BIOTECH (BEIJING) CO., LTD.), and then cDNA was obtained using two-step reverse transcription kit (a third-generation premix for two-step de-genomization and reverse transcription, Cat. No.: MR05201). cDNA as a template was added into a 96-well plate, with addition of SYBR®Green I chimeric dye (an antibody dye quantitative PCR premix, Cat. No.: MQ10101) and gene primers for three-step qPCR amplification. Finally, the relative gene expression was calculated based on the Ct value.\nThe steps of RNA extraction, reverse transcription, and fluorescence quantitative PCR were the same as above, and the sequences of primers were as follows: […]\nas §1"}, "MCF7 cells": {"tested_on": "MCF7 cells", "assay": "Detection of GhJAZ1 protein entry into the nucleus, fluorescence microscope", "format": "cell-based, human", "settings": "0.5 μM", "source_text": "In order to explore how GhJAZ1 enters cancer cells, we cloned the genes of most tumor surface receptors, including uPAR (NCBI database accession number of NM_002659.4), CCK1R (NP_000721.1), CCK2R (NP_001350481.1), HER2 (NP_004439.2), GRPR (NP_005305.1), MUC1 (NP_001358649.1), VEGFR1 (NP_002010.2), Insulin receptor (NM_000208.4), NTR (XM_011528827.2), PSMA (XM_017017432.1), TFR1 (NM_001128148.3), TFR2 (NM_003227.4), PEPT1 (NM_005073.4), APN (NM_001150.3). The receptor proteins that interact with GhJAZ1 were then screened by yeast two hybrid (the steps of the experiment as Example 3). […] We detected the interaction of GhJAZ1 with uPA (as the ligand of uPAR, NCBI database accession number of NP_002649.2) and uPAR by yeast two hybrid (the steps of the experiment as Example 3). […] GhJAZ1+RFP (the amino acid sequence set forth in SEQ ID No. 81, corresponding encoding gene sequence set forth in SEQ ID No. 82) was ligated to pET-30a (+) vector (YouBio, Cat. No.: VT1212) between NdeI and HindIII, and GhJAZ1+RFP protein with red fluorescence was prokaryotically expressed and purified (the step of method as step 2 in Example 4) (A in FIG. 11), and then MCF7 cells were treated with GhJAZ1+RFP protein and observed by a fluorescence microscope."}}, "data": [{"compound": "CCN(CC)C(=S)[S-].[Na+]", "note": "[DIECA]", "values": [{"measurement": "JA content of callus", "setting": "[1]", "value": "significantly decreased"}, {"measurement": "growth of callus of cotton", "setting": "[2]", "value": "significantly inhibit"}, {"measurement": "cell cycle-related genes of callus", "setting": "[3]", "value": "marked changes"}]}, {"compound": "CC(C)Cc1ccc(C(C)C(=O)O)cc1", "note": "(stereo not shown) [ibuprofen]", "values": [{"measurement": "JA content of callus", "setting": "[1]", "value": "significantly decreased"}, {"measurement": "growth of callus of cotton", "setting": "[2]", "value": "significantly inhibit"}, {"measurement": "cell cycle-related genes of callus", "setting": "[3]", "value": "marked changes"}]}, {"compound": "GhJAZ1+RFP: GhJAZ1 fused with RFP, red fluorescence, amino acid sequence SEQ ID No. 81", "values": [{"measurement": "entry into the nucleus of MCF7 cells (red fluorescence merged with blue nuclear fluorescence)", "setting": "MCF7 cells", "value": "entered the nucleus"}]}]}
